In ChEMBL document CHEMBL1201862, “PubChem BioAssay data set” (2004):
Calls of active or inactive are those of the source.

What was measured:
[1] = viability of uninfected HEp-2 cells – cell-based, HTS, cytotoxicity control for RSV inhibitor project, dose response (AID 2410); assay type: functional; settings: human respiratory syncytial virus
[2] = Luminescence-based counterscreen assay for KLF5 inhibitors: dose response cell-based high throughput screening assay to identify cytotoxic compounds using the IEC-6 intestinal epithelial cell line. [Related pubchem assays: 1700 (Primary screen.), 1834 (Confirmation screen.), 1858 (Summary AID.), 1905 (Counterscreen.)]; assay type: functional
[3] = biological target: Glucose-6-phosphate 1-dehydrogenase (Homo sapiens, UniProt P11413); experiment: inhibition of Homo sapiens G6PD, dose series – biochemical, fluorescence, selectivity assay for P. falciparum G6PD inhibitor project, dose response (AID 504792); assay type: functional
Glucose-6-phosphate 1-dehydrogenase, sequence (P11413 whole entry): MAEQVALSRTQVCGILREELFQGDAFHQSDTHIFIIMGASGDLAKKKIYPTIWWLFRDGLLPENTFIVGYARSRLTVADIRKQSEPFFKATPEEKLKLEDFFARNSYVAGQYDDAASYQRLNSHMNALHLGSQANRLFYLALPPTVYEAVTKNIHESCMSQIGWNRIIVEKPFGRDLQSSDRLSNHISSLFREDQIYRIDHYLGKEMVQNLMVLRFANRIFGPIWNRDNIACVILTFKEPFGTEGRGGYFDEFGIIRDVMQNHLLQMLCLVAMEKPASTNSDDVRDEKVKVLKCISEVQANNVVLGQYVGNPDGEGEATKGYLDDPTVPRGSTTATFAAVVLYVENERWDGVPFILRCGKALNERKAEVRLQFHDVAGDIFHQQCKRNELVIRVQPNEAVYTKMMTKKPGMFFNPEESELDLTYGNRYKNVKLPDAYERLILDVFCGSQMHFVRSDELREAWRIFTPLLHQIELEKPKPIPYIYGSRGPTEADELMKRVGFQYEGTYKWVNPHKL

[4] = biological target: T1, Microphthalmia-associated transcription factor (Homo sapiens, UniProt O75030); experiment: reducers of TRPM1 reporter luminescence, concentration series – cell-based, SK-MEL-5, cherry-picked, set 3, MITF inhibitor project, dose response (AID 493073); assay type: functional;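 also: SK-MEL-5 melanoma cells with luciferase driven by the MITF target TRPM1 promoter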
T1 sequence (O75030 whole entry): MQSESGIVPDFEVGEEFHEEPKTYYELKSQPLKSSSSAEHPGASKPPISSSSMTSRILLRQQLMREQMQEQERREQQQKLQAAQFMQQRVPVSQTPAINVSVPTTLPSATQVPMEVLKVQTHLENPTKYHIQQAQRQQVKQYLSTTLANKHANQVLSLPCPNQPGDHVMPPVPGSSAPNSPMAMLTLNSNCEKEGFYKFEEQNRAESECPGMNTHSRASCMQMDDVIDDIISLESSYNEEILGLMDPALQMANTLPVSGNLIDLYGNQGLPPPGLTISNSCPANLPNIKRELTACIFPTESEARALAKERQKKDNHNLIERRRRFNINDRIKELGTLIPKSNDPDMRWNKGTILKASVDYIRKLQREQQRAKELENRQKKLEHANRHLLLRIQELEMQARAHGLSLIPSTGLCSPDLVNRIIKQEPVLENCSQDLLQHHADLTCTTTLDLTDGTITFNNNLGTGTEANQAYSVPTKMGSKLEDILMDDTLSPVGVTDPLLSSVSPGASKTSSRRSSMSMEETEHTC

Vero = experiment: cells; assay type: functional; settings: Chlorocebus sabaeus
[5] = biological target: T2, Long-chain-fatty-acid--AMP ligase FadD28 (Mycobacterium tuberculosis, UniProt P9WQ59); experiment: Fluorescence polarization aasay to screen for inhibitors that compete for the binding of FadD28 to a bisubstrate Measured in Biochemical System Using Plate Reader - 2147-01_Inhibitor_Dose_CherryPick_Activity.; assay type: functional, Mycobacterium tuberculosis H37Rv
T2 sequence (P9WQ59 whole entry): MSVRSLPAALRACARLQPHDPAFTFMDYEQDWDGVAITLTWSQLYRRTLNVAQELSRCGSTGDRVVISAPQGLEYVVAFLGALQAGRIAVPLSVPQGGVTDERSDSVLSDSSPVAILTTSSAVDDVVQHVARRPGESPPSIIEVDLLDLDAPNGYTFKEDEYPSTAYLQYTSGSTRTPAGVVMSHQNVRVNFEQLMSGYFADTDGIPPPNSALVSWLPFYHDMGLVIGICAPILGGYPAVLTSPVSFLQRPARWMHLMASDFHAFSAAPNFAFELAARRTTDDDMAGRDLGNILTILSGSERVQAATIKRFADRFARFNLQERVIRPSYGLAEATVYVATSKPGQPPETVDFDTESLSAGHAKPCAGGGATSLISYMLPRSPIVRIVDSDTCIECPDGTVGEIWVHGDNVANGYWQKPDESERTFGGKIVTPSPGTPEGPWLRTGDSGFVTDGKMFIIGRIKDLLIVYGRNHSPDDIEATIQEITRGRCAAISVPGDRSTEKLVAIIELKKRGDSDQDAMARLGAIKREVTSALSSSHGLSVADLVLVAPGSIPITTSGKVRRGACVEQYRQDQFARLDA

[6] = blockers of HIV-1 envelope-mediated cell-cell fusion – cherry-pick, dose response (AID 652057); assay type: functional, cell-based
[7] = viability loss in CEM21 cells – cell-based, CellTiter-Glo luminescence, cherry-picked, cytotoxicity control for viral fusion inhibitor project, dose response (AID 652042); assay type: functional;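 also: potency for signal decrease meaning cytotoxicity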
[8] = blockers of HIV-1 ZM109 envelope-driven cell-cell fusion – HeLa effector, CEM target cells, luciferase, cherry-pick, dose response (AID 652058); assay type: functional, cell-based;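 also: luciferase signal from HIV-1 Env mediated cell-cell fusion of effector and target cells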
[9] = off-target signal loss in HeLa-CEM21 co-culture – HeLa F-luc CTL cells, cherry-picked, counter-screen for HIV-1 Env fusion inhibitor project, dose response (AID 652040); assay type: functional, cell-based;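 also: potency for signal decrease marking cytotoxic or nonspecific inhibition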
[10] = HIV-1 AD8 envelope cell-cell fusion blockers – cherry-pick, dose response (AID 652062); assay type: functional, cell-based;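 also: luciferase signal from cell-cell fusion driven by HIV-1 clade B AD8 Env; potency is for inhibitors of fusion seen as a drop in luminescence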
Bcl-2-like protein 10 = biological target: T3, Bcl-2-like protein 10 (Homo sapiens, UniProt Q9HD36); experiment: Concentration-response of Bcl-B inhibitors by biochemical FP with TR3 (AID 1243); assay type: functional
T3 sequence (Q9HD36 whole entry): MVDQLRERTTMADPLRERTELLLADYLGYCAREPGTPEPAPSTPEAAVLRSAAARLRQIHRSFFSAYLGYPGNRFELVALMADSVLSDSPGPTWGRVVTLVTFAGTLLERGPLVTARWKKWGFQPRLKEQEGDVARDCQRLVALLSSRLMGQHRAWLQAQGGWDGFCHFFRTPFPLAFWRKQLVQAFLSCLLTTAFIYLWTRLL

SMILES | CC50 [1] | IC50 [2] | IC50 [3] | AC50 [4] | CC50 (Vero) | AC50 [5] | AC50 [6] | AC50 [7] | AC50 [8] | AC50 [9] | AC50 [10] | EC50 (Bcl-2-like protein 10)
CC(C)(C)c1ccc(C(=O)Nc2sc3c(c2C(=O)O)CCC3)cc1 | 6.97 µM (active) | > 39.8 µM (not active) | > 80 µM (inactive) | 2.09 µM (active) | > 25 µM (active) | > 100 µM (inactive) | 2.21 µM (active) | 66.1 µM (active) | 1.36 µM (active) | 4.43 µM (active) | 0.786 µM (active) | –
Cc1ccc(C)n1-c1ccccc1C(=O)O | – | – | – | – | – | – | – | – | – | – | – | 0.62 µM (active)
